Here are results for 22 compounds from patent US8507488B2, “Fused nitrogen containing heterocycles and compositions thereof as kinase inhibitors” (IRM LLC, priority 2008, dated 2013).

Some results are limits rather than exact numbers.

The target of assay [1] is T1, Tel-TrkA (Homo sapiens, UniProt P04629).
T1 construct: dimerization domain of Tel (ETV6) transcription factor (fusion partner, human ETV6 P41212); expressed in transfected cells; host or cells: luciferase expressing Ba/F3 murine hematopoietic progenitor cells; the other entry of the earlier key: ETV6 (P41212, Transcription factor ETV6)
As to the kind of experiment: Inhibition of proliferation of Ba/F3 cells expressing Tel-TrkA (BaF3/Tel-TrkA, luciferase/Bright Glo readout). The assay is classed as cell-based. The following applies: read-out: Ba/F3 Tel-TrkA IC 50. As to the method:
(§1) Test compounds were dissolved in DMSO (10 mM) and transferred into 1.4 mL flat bottom or V-shaped Matrix tubes carrying a unique 2D matrix chip by individual compound hubs. The numbers of these chips were distinctively linked to the individual compound identification numbers. The stock solutions were stored at −20° C. if not used immediately. For the test procedure the vials were defrosted and identified by a scanner whereby a working sheet is generated that guides the subsequent working steps.
(§2) Compound dilutions were made in 384 well plates. This format enabled the assay of maximally 28 individual test compounds at 12 concentrations (single points) including 2 reference compounds. The dilution protocol included the production of pre-dilution plates, master plates and assay plates: • Compound plates: 30 μL of individual compound (10 mM) DMSO solution including standard compound were transferred into columns 1 and 13 of a 384 well plate. 20 μL of DMSO were added to the rest of the wells and the compounds were serially diluted (1:3) by transferring 10 μL from a well in column 1 or 13 to the next well in column 2 or 14 respectively and successively with the help of a Minitrack robot. • Assay plates: Identical assay plates were then prepared by adding […] each of compound dilutions of the compound plates into 384-well “assay plates”. In the following the compounds were mixed with 50 μL of assays components (cells or enzyme) and tested for their inhibitory activity.
(§3) Compounds of Formula (I) were tested for their antiproliferative effect on Ba/F3 cells expressing either Tel-TrkA, Tel-TrkB or Tel-TrkC and an additional panel of 34 selected diverse kinases activated by fusion to the dimerizing partners Bcr or Tel (Abl, A1K, BMX, EphA3, EphB2, FGFR2, FGFR3, FGFR4, FGR, FLT1, FLT3, FLT4, FMS, IGF1R, InsR, JAK1, JAK2, JAK3, KDR, Kit, Lck, Lyn, MER, MET, PDGFRb, RET, RON, Ros-1, Src, Aurora, TIE2, TYK2, Tie1, ZAP70). The antiproliferative effect of these compounds on the different cell lines and on the non transformed cells were tested at 12 different concentrations of 3-fold serially diluted compounds in 384 well plates as described above (in media lacking IL3). The IC50 values of the compounds the different cell lines were determined from dose response curves.
(§4) The cell line used is the luciferase expressing Ba/F3 murine hematopoietic progenitor cell line transformed with human Tel-TrkA, Tel-TrkB or Tel-TrkC cDNAs (Ba/F3 EN A/B/C). These cells maintained in RPMI/10% fetal bovine serum (RPMI/FCS) supplemented with penicillin 50 mg/mL, streptomycin 50 mg/mL and L-glutamine […]. Untransformed Ba/F3 cells were similarly maintained with the addition 5 ng/ml of murine recombinant IL3. 50 μl of a Ba/F3 or Ba/F3 EN A/B/C cell suspension were plated in Greiner 384 well microplates (white)) at a density of 2000 cells per well. […] The cells were incubated for 48 hours at 37° C., 5% CO2. 25 μl of Bright Glo® (Promega) luciferase substrate is added to each well. The emited luminiscence is quantified using the ACQUEST™ luminescence system (Molecular Devices). IC50 values were calculated by linear regression analysis of the percentage inhibition of each compound at 12 concentrations.

For assay [2], the system named is parental BaF3 cells. As to the kind of experiment: Proliferation of parental (untransformed) Ba/F3 cells maintained with IL3. It counts as cell-based, murine. The settings on record: Mus musculus, BaF3, parental Ba/F3 cells; read-out: Ba/F3 IC 50. As for the experimental part:
as §1, §2
The cell line used is the luciferase expressing Ba/F3 murine hematopoietic progenitor cell line transformed with human Tel-TrkA, Tel-TrkB or Tel-TrkC cDNAs (Ba/F3 EN A/B/C). These cells maintained in RPMI/10% fetal bovine serum (RPMI/FCS) supplemented with penicillin 50 mg/mL, streptomycin 50 mg/mL and L-glutamine […]. Untransformed Ba/F3 cells were similarly maintained with the addition 5 ng/ml of murine recombinant IL3. 50 μl of a Ba/F3 or Ba/F3 EN A/B/C cell suspension were plated in Greiner 384 well microplates (white)) at a density of 2000 cells per well. 50 nl of serially diluted test compound (10-0.0001 mM in DMSO solution) is added to each well. The cells were incubated for 48 hours at 37° C., 5% CO2. 25 μl of Bright Glo® (Promega) luciferase substrate is added to each well. The emited luminiscence is quantified using the ACQUEST™ luminescence system (Molecular Devices). IC50 values were calculated by linear regression analysis of the percentage inhibition of each compound at 12 concentrations.

Assay [3] has as its target T2, full length rTrkA and mNGF (Rattus norvegicus, UniProt P35739).
T2 construct: co-expressing full length rTrkA and mNGF; expressed in transfected cells; host or cells: Ba/F3 cells
The experiment in a line: Inhibition of proliferation of Ba/F3 cells co-expressing full length rTrkA and mNGF (BaF3/TrkA-NFG). It counts as cell-based. The settings on record: BaF3 TRKA-NGF cells, CTG readout.

For assay [4], the target named is T3, Tel-TrkB (Homo sapiens, UniProt Q16620).
T3 construct: dimerization domain of Tel (ETV6) transcription factor (fusion partner, human ETV6 P41212); expressed in transfected cells; host or cells: luciferase expressing Ba/F3 murine hematopoietic progenitor cells; the other entry of the earlier key: ETV6 (P41212, Transcription factor ETV6)
As to the kind of experiment: Inhibition of proliferation of Ba/F3 cells expressing Tel-TrkB (BaF3/Tel-TrkB). It counts as cell-based. The settings on record: Ba/F3 Tel-TrkB cells; read-out: Ba/F3 Tel-TrkB IC 50. As to the method:
as §1, §2, §3, §4

T2 sequence (P35739 33-799): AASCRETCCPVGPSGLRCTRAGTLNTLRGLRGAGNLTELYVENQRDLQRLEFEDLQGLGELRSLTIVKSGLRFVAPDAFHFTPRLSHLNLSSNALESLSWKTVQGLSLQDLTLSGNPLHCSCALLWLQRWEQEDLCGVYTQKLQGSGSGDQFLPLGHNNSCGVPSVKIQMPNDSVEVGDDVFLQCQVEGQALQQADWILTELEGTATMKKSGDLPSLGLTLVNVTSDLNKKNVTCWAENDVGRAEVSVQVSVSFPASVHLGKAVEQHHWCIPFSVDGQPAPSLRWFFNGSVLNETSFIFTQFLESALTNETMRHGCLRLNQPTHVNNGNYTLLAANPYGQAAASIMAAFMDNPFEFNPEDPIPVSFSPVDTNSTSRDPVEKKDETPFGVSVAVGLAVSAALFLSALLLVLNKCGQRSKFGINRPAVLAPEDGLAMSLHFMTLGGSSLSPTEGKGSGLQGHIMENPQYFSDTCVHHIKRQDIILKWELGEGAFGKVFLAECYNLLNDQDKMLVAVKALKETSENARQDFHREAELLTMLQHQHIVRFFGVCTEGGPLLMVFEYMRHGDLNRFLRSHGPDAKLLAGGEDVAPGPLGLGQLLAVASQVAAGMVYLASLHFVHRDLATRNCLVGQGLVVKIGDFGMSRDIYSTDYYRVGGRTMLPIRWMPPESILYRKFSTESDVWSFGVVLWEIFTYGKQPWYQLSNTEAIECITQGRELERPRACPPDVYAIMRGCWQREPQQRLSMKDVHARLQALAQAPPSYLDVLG
T2 sequence (P01139 122-241 partner): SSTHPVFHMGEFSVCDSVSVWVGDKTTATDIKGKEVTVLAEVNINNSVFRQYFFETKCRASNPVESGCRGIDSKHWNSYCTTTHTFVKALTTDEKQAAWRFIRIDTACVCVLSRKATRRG
T1 sequence (P04629 510-796 limits assumed): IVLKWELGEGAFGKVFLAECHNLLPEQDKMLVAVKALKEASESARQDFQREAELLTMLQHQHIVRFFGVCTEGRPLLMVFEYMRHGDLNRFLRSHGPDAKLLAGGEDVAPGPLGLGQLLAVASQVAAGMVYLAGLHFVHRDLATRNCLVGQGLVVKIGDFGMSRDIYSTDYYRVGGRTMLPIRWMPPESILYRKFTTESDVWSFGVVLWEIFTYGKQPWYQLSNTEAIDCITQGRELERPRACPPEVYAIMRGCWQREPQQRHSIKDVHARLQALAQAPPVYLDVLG
T3 sequence (Q16620 538-822 limits assumed): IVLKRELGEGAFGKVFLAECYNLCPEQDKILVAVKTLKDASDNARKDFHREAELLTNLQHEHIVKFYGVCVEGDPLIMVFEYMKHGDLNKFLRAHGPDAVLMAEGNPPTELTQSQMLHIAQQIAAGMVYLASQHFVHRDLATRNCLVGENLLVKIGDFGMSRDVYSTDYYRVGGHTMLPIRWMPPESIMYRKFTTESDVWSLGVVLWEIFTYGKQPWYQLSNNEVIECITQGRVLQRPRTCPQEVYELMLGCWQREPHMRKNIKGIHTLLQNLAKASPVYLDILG

For the compound `O=C(NCCO)c1ccc(-c2cnc3ccc(N4CCCC4c4cccc(F)c4)nn23)cn1` (centres unmarked) [Table 3-Compound 19], the IC50 in assay [1] was 1020 nM; in assay [2], over 10000 nM; in assay [4], 540 nM. Moreover, in assay [3], the “BaF3 TRKA-NGF CTG IC 50” value worked out at 370 nM.
For `Fc1ccc(F)c(C2CCCN2c2ccc3ncn(-c4cccc(-c5ncc[nH]5)c4)c3n2)c1` (centres unmarked) [Table 1-Compound 4], the IC50 in assay [1] is 1600 nM; in assay [4], 790 nM.
`COc1ncc(-c2cnc3ccc(N4CCCC4c4cccc(F)c4)nn23)s1` (centres unmarked) [Table 3-Compound 27]: the IC50 is 140 nM in assay [1], over 10000 nM in assay [2] and 93 nM in assay [4]. In assay [3], the “BaF3 TRKA-NGF CTG IC 50” value was found to be 320 nM.
In the same order, the values of `CNC1CCN(c2cc(-c3cccc(-c4cnc5ccc(N6CCCC6c6cccc(F)c6)nn45)n3)ccn2)CC1` (centres unmarked) [Table 7-Compound 249] are 144 nM, 6380 nM, 147 nM and 130 nM.
With `O=C(COCc1ccccc1)N1CCN(c2cccc(-c3cnc4ccc(N5CCC[C@@H]5c5cccc(F)c5)nn34)n2)CC1` [Table 7-Compound 191], the values for the IC50 in assay [1], in assay [2] and in assay [4] were 14 nM, over 9560 nM and 12 nM, respectively. The “BaF3 TRKA-NGF CTG IC 50” value in assay [3] is 16 nM.
The like results for `OCCC1CCN(c2cccc(-c3cnc4ccc(N5CCOCC5c5cccc(F)c5)nn34)n2)CC1` (centres unmarked) [Table 2-Compound 23] were, in that order, 10 nM, over 10000 nM, 24 nM and 12 nM.
For `CCN(CC)S(=O)(=O)N1CCN(c2cccc(-c3cnc4ccc(N5CCC[C@@H]5c5cccc(F)c5)nn34)n2)CC1` [Table 7-Compound 231], the IC50 in assay [1] is 23 nM; in assay [2], over 11000 nM; in assay [4], 28 nM. In addition, in assay [3], the “BaF3 TRKA-NGF CTG IC 50” value turned out to be 54 nM.
In the same order, the values of `OC1CCN(Cc2cccc(-c3cnc4ccc(N5CCCC5c5cccc(F)c5)nn34)n2)C1` (centres unmarked) [Table 3-Compound 45] are 1020 nM, 8060 nM, 790 nM and 1020 nM.
The like results for `O=C(c1ccc(-c2cnc3ccc(N4CCCC4c4cccc(F)c4)nn23)cn1)N1CCC(O)CC1` (centres unmarked) [Table 3-Compound 26] were, in that order, 1020 nM, over 10000 nM, 540 nM and 370 nM.
As for `CC(C)(C)OC(=O)N1CCC(Oc2ncc(-c3cnc4ccc(N5CCCC5c5cccc(F)c5)nn34)cn2)CC1` (centres unmarked) [Table 7-Compound 176], the results for the IC50 in assay [1], in assay [2] and in assay [4] were 1120 nM, 2750 nM and 971 nM, respectively. Besides, the “BaF3 TRKA-NGF CTG IC 50” value in assay [3] worked out at 886 nM.
The like results for `Fc1cccc(C2CCCN2c2ccc3ncc(-c4cccc(-c5ccnc(N6CC7(COC7)C6)n5)n4)n3n2)c1` (centres unmarked) [Table 7-Compound 136] were, in that order, 13 nM, 4320 nM, 24 nM and 39 nM.
The like results for `O=C(Nc1cnc(-c2cnc3ccc(N4CCCC4c4cccc(F)c4)nn23)cn1)C1CC1` (centres unmarked) [Table 3-Compound 41] were, in that order, 200 nM, 200 nM, 210 nM and 110 nM.
Consider `Fc1cccc(C2COCCN2c2ccc3ncc(-c4cccc(N5CCOCC5)n4)n3n2)c1` (centres unmarked) [Table 2-Compound 10], for which the values for the IC50 in assay [1], in assay [2] and in assay [4] were 6.9 nM, over 10000 nM and 6.2 nM, respectively. Further, the “BaF3 TRKA-NGF CTG IC 50” value in assay [3] was determined as 8.8 nM.
Regarding `Cc1c[nH]c(C2CCN(c3cccc(-c4cnc5ccc(N6CCOCC6c6cccc(F)c6)nn45)n3)CC2)n1` (centres unmarked) [Table 7-Compound 143], the IC50 is 34 nM in assay [1], over 11000 nM in assay [2] and 53 nM in assay [4]. In addition, in assay [3], the “BaF3 TRKA-NGF CTG IC 50” value is 31 nM.
The like results for `Fc1cccc(C2CCCN2c2ccc3ncc(-c4cccc(C5OCCO5)n4)n3n2)c1` (centres unmarked) [Table 7-Compound 18] were, in that order, 47 nM, over 10000 nM, 4.8 nM and 64 nM.
In the same order, the values of `CC(C)c1noc(C2CCN(c3cccc(-c4cnc5ccc(N6CCOCC6c6cccc(F)c6)nn45)n3)CC2)n1` (centres unmarked) [Table 7-Compound 21] are 90 nM, over 10000 nM, 67 nM and 121 nM.
As to `[2H]C([2H])([2H])N(C1CCN(c2cccc(-c3cnc4ccc(N5CCC[C@@H]5c5cccc(F)c5)nn34)n2)CC1)C([2H])([2H])[2H]` [Table 7-Compound 230], the IC50 was 6 nM in assay [1], 2690 nM in assay [2] and 9 nM in assay [4]. Further, the “BaF3 TRKA-NGF CTG IC 50” value in assay [3] was 29 nM.
In the same order, the values of `Fc1cccc(C2CCCN2c2ccc3ncc(-c4cccc(-c5cnc(N6CCOCC6)nc5)n4)n3n2)c1` (centres unmarked) [Table 7-Compound 54] are 28 nM, over 10000 nM, 37 nM and 41 nM.
On to `OCCN1CCN(c2cccc(-c3cnc4ccc(N5CCCC5c5cccc(F)c5)nn34)n2)CC1` (centres unmarked) [Table 7-Compound 100], for which the values for the IC50 in assay [1], in assay [2] and in assay [4] were 2 nM, 4380 nM and 2 nM, respectively. The “BaF3 TRKA-NGF CTG IC 50” value in assay [3] came out at 3 nM.
Regarding `Fc1cccc(C2CCCN2c2ccc3ncc(-c4csc(CN5CCNCC5)n4)n3n2)c1` (centres unmarked) [Table 3-Compound 30], the IC50 is 1100 nM in assay [1], over 10000 nM in assay [2] and 1060 nM in assay [4]. Besides, the “BaF3 TRKA-NGF CTG IC 50” value in assay [3] was 1340 nM.
With `CCOC(=O)C1CCN(c2cccc(-c3cnc4ccc(N5CCOCC5c5cccc(F)c5)nn34)n2)CC1` (centres unmarked) [Table 7-Compound 17], the IC50 was 81 nM in assay [1], over 10000 nM in assay [2] and 44 nM in assay [4]. Further, in assay [3], the “BaF3 TRKA-NGF CTG IC 50” value came to 93 nM.
With `Fc1cccc(C2CCCN2c2ccc3ncc(-c4cccc(-c5cnco5)n4)n3n2)c1` (centres unmarked) [Table 7-Compound 20], the values for the IC50 in assay [1], in assay [2] and in assay [4] were 1.8 nM, over 10000 nM and 1.6 nM, respectively. Moreover, the “BaF3 TRKA-NGF CTG IC 50” value in assay [3] turned out to be 3.6 nM.
